From patent publication US20250243242A1, “LEVODOPA TYROSINE POLYMORPHS” (NeuroDerm, Ltd., priority 2022, published 2025)
In brackets after ≈: the same amount, converted by molar mass. Blank lines part the entries; values can stand above or below the compound they belong to. Non-standard residues stand in square brackets, D forms with d. Residues, ends and D or L forms follow the SMILES beside them. Dopa = N[C@@H](Cc1ccc(O)c(O)c1)C(=O)O

Assays:
Type in all cases: physicochemical
[1] = solid form stability upon storage at ambient conditions
[2] = dynamic vapor sorption (DVS); details: for hygroscopicity, weight gained: between 40-80% RH; for hygroscopicity (in words): DVS, 40-80% RH
Method: Dynamic vapour sorption (DVS) was performed using a Hiden Analytical Instruments IGAsorp Vapour Sorption Balance. Approximately 30 mg of sample was placed into a wire-mesh vapour sorption balance pan, loaded into the IGAsorp vapour sorption balance and held at 25° C.±0.1° C. The sample was subjected to a step profile in 10% increments from 40-90% RH, followed by desorption from 90-0% RH and a second sorption cycle form 0-40% RH. The equilibrium criterion was set to 99.0% step completion within a minimum of 60 minutes and a maximum of 5 hours for each increment. The weight change during the sorption cycle was monitored, allowing for the hygroscopic nature of the sample to be determined. The data collection interval was in seconds.

[3] = physical stability at 75% RH and 40° C.
[4] = aqueous solubility at various pH
[5] = between about 40 to about 80% RH at 25° C.

Structure (SMILES): N[C@@H](Cc1ccc(O)c(O)c1)C(=O)N[C@@H](Cc1ccc(O)cc1)C(=O)O [Form C, ((S)-2-amino-3-(3,4-dihydroxyphenyl)propanoyl)-L-tyrosine] (H-[Dopa]-Tyr-OH)
form conversion upon storage [1]: converted to Form G

Structure (SMILES): N[C@@H](Cc1ccc(O)c(O)c1)C(=O)N[C@@H](Cc1ccc(O)cc1)C(=O)O [Form D, ((S)-2-amino-3-(3,4-dihydroxyphenyl)propanoyl)-L-tyrosine] (H-[Dopa]-Tyr-OH)
form conversion upon storage [1]: converted to Form N

Structure (SMILES): N[C@@H](Cc1ccc(O)c(O)c1)C(=O)N[C@@H](Cc1ccc(O)cc1)C(=O)O [Form E, ((S)-2-amino-3-(3,4-dihydroxyphenyl)propanoyl)-L-tyrosine] (H-[Dopa]-Tyr-OH)
form conversion upon storage [1]: converted to Form B
DVS reversable total mass change ([2]; between about 0 to about 90% RH at 25° C.): about 8 wt. %

Further lines, results first:

hygroscopicity, weight gained [2]: 2.6 % w/w
DVS reversable total mass change [2, 5]: about 2.6 wt. %
Structure (SMILES): N[C@@H](Cc1ccc(O)c(O)c1)C(=O)N[C@@H](Cc1ccc(O)cc1)C(=O)O [Form G, ((S)-2-amino-3-(3,4-dihydroxyphenyl)propanoyl)-L-tyrosine] (H-[Dopa]-Tyr-OH)

physical stability [3]: physically stable
hydrate stability, water loss at low RH ([2]; DVS analysis, compared with Form G): more stable hydrate
hygroscopicity (in words) [2]: less hygroscopic
hygroscopicity, weight gained [2]: 0.6 % w/w
DVS reversable total mass change [2, 5]: about 0.6 wt. %
solubility ([4]; aqueous medium, pH 3.27, aqueous buffer, pH of about 3.27): ~2860 µg/mL (≈ 7.94 mM)
solubility ([4]; aqueous medium, pH 3.83, aqueous buffer, pH of about 3.83): ~1640 µg/mL (≈ 4.55 mM)
solubility ([4]; aqueous medium, pH 3.92, aqueous buffer, pH of about 3.92): ~1540 µg/mL (≈ 4.27 mM)
solubility ([4]; aqueous medium, pH 4.68, aqueous buffer, pH of about 4.68): ~1330 µg/mL (≈ 3.69 mM)
solubility ([4]; aqueous medium, pH 5, aqueous buffer, pH of about 5.00): ~1290 µg/mL (≈ 3.58 mM)
solubility ([4]; aqueous medium, pH 6.04, aqueous buffer, pH of about 6.04): ~1370 µg/mL (≈ 3.8 mM)
solubility ([4]; aqueous solution, pH 1.17, simulated gastric fluid, pH of about 1.17): ~184000 µg/mL (≈ 512 mM)
solubility ([4]; aqueous solution, pH 2.6, aqueous buffer, pH of about 2.60): ~9460 µg/mL (≈ 26.3 mM)
solubility ([4]; aqueous solution, pH 3, aqueous buffer, pH of about 3.00): ~4060 µg/mL (≈ 11.3 mM)
solubility ([4]; aqueous solution, pH 6.78, aqueous buffer, pH of about 6.78): ~510 µg/mL (≈ 1.42 mM)
solubility ([4]; aqueous solution, pH 7.56, aqueous buffer, pH of about 7.56): ~18900 µg/mL (≈ 52.3 mM)
solubility ([4]; aqueous solution, pH 8.69, aqueous buffer, pH of about 8.69): ~111000 µg/mL (≈ 309 mM)
solubility ([4]; aqueous solution, pH 9.43, aqueous buffer, pH of about 9.43): ~58700 µg/mL (≈ 163 mM)
solubility ([4]; aqueous solution, pH 10.26, aqueous buffer, pH of about 10.26): ~155000 µg/mL (≈ 431 mM)
Structure (SMILES): N[C@@H](Cc1ccc(O)c(O)c1)C(=O)N[C@@H](Cc1ccc(O)cc1)C(=O)O [Form N, ((S)-2-amino-3-(3,4-dihydroxyphenyl)propanoyl)-L-tyrosine] (H-[Dopa]-Tyr-OH)

hygroscopicity (in words) [2]: hygroscopic
solid form by XRPD following DVS cycling ([2]; XRPD after DVS cycling): converted to Pattern N material
DVS reversable total mass change [2, 5]: about 4.19 wt. %
Structure (SMILES): N[C@@H](Cc1ccc(O)c(O)c1)C(=O)N[C@@H](Cc1ccc(O)cc1)C(=O)O [amorphous form, ((S)-2-amino-3-(3,4-dihydroxyphenyl)propanoyl)-L-tyrosine] (H-[Dopa]-Tyr-OH)
